Results published in patent US9169209B2, “Compounds and compositions for the inhibition of NAMPT” (FORMA TM, LLC, priority 2011, dated 2015).
Read-outs that look alike come from different tables or passages of the source.

How the values were obtained:
A2780 cells = assay: In-Vitro Cell Proliferation Assay (SRB, 72 hours); type: cell-based; conditions: Homo sapiens, A2780, 72 h, read-out: A2780 IC50
How it was run: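 Plated cells exposed to serially diluted compound (0.1% DMSO final) for 72 h at 37 °C, 5% CO2. Viability by SRB staining after TCA fixation, absorbance 570 nm, media-only background subtracted; % inhibition relative to DMSO-treated cells, interpolated between bracketing concentrations.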

NAMPT = NAMPT (Homo sapiens (Human), UniProt P43490); assay: Biochemical Inhibition Assay (NAMPT enzymatic reaction, NMN quantified by mass spectrometry); conditions: recombinant His-tagged NAMPT, 33 nM; 1 μM NAM; read-out: Biochem IC50
NAMPT, sequence (P43490 whole entry): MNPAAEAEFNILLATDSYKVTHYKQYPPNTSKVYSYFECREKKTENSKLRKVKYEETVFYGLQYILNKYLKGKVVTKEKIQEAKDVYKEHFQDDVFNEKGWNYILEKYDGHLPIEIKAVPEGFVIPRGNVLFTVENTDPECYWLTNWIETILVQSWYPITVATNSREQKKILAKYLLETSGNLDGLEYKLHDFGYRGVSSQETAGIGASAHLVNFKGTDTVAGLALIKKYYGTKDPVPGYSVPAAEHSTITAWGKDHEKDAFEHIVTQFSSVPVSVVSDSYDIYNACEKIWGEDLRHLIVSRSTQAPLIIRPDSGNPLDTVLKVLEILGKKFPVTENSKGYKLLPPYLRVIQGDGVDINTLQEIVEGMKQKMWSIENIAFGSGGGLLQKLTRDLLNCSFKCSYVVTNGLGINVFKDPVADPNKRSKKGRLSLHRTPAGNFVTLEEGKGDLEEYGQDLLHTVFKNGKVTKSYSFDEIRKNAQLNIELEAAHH
How it was run: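 His-tagged human NAMPT from E. coli was preincubated 15 min at RT with compound in Hepes pH 7.5/MgCl2 buffer. Reaction ran 30 min at RT with 1 μM NAM, 100 μM PRPP and 2.5 mM ATP, then was quenched with formic acid. NMN was measured by RapidFire MS, normalized to L-cystathionine, and IC50 derived from % inhibition.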

[1] = A2780 cells, 72 hours, sulforhodamine B

| SMILES | IC50 (A2780 cells; [1]) [nM] | IC50 (NAMPT) [nM] | IC50 (A2780 cells) [nM] |
| --- | --- | --- | --- |
| COc1ccc(S(=O)(=O)c2ccc(NC(=O)/C=C/c3cccnc3)cc2)cc1Cl [(2E)-N-{4-[(3-chloro-4-methoxybenzene)sulfonyl]phenyl}-3-(pyridin-3-yl)prop-2-enamide] | 123 | 5.8 |  |
| Cc1ccc(S(=O)(=O)c2ccc(NC(=O)/C=C/c3cccnc3)cc2)cc1Cl [(2E)-N-{4-[(3-chloro-4-methylbenzene)sulfonyl]phenyl}-3-(pyridin-3-yl)prop-2-enamide] | 199 | 8.6 |  |
| CCCOc1ccc(S(=O)(=O)c2ccc(NC(=O)/C=C/c3cccnc3)cc2)cc1Cl [(2E)-N-{4-[(3-chloro-4-propoxybenzene)sulfonyl]phenyl}-3-(pyridin-3-yl)prop-2-enamide] | 100 to 1000 | 5.6 |  |
| O=C(/C=C/c1cccnc1)Nc1ccc(S(=O)(=O)c2cc(F)cc(Cl)c2)cc1 [(2E)-N-{4-[(3-chloro-5-fluorobenzene)sulfonyl]phenyl}-3-(pyridin-3-yl)prop-2-enamide] | 179 | 124 |  |
| COc1cc(Cl)cc(S(=O)(=O)c2ccc(NC(=O)/C=C/c3cccnc3)cc2)c1 [(2E)-N-{4-[(3-chloro-5-methoxybenzene)sulfonyl]phenyl}-3-(pyridin-3-yl)prop-2-enamide] | 100 | 22 |  |
| O=C(/C=C/c1cccnc1)Nc1ccc(S(=O)(=O)c2cccc(Cl)c2)cc1 [(2E)-N-{4-[(3-chlorobenzene)sulfonyl]phenyl}-3-(pyridin-3-yl)prop-2-enamide] |  | 122 | 182 |
| CCS(=O)(=O)Nc1cccc(S(=O)(=O)c2ccc(NC(=O)/C=C/c3cccnc3)cc2)c1 [(2E)-N-{4-[(3-ethanesulfonamidobenzene)sulfonyl]phenyl}-3-(pyridin-3-yl)prop-2-enamide] | 100 to 1000 | 8.1 |  |
| CCOc1cccc(S(=O)(=O)c2ccc(NC(=O)/C=C/c3cccnc3)cc2)c1 [(2E)-N-{4-[(3-ethoxybenzene)sulfonyl]phenyl}-3-(pyridin-3-yl)prop-2-enamide] | 91.9 | 57.2 |  |
| CCc1cccc(S(=O)(=O)c2ccc(NC(=O)/C=C/c3cccnc3)cc2)c1 [(2E)-N-{4-[(3-ethylbenzene)sulfonyl]phenyl}-3-(pyridin-3-yl)prop-2-enamide] | 30.5 | 3.3 |  |
| COc1ccc(S(=O)(=O)c2ccc(NC(=O)/C=C/c3cccnc3)cc2)cc1F [(2E)-N-{4-[(3-fluoro-4-methoxybenzene)sulfonyl]phenyl}-3-(pyridin-3-yl)prop-2-enamide] | 103 | 11.5 |  |
| Cc1ccc(S(=O)(=O)c2ccc(NC(=O)/C=C/c3cccnc3)cc2)cc1F [(2E)-N-{4-[(3-fluoro-4-methylbenzene)sulfonyl]phenyl}-3-(pyridin-3-yl)prop-2-enamide] | 196 | 27.6 |  |
| CCCOc1ccc(S(=O)(=O)c2ccc(NC(=O)/C=C/c3cccnc3)cc2)cc1F [(2E)-N-{4-[(3-fluoro-4-propoxybenzene)sulfonyl]phenyl}-3-(pyridin-3-yl)prop-2-enamide] | 100 to 1000 | 40.9 |  |
| COc1cc(F)cc(S(=O)(=O)c2ccc(NC(=O)/C=C/c3cccnc3)cc2)c1 [(2E)-N-{4-[(3-fluoro-5-methoxybenzene)sulfonyl]phenyl}-3-(pyridin-3-yl)prop-2-enamide] | 68.1 | 3.2 |  |
| Cc1cc(F)cc(S(=O)(=O)c2ccc(NC(=O)/C=C/c3cccnc3)cc2)c1 [(2E)-N-{4-[(3-fluoro-5-methylbenzene)sulfonyl]phenyl}-3-(pyridin-3-yl)prop-2-enamide] | 108 | 17.5 |  |
| O=C(/C=C/c1cccnc1)Nc1ccc(S(=O)(=O)c2cccc(F)c2)cc1 [(2E)-N-{4-[(3-fluorobenzene)sulfonyl]phenyl}-3-(pyridin-3-yl)prop-2-enamide] | 103 | 66.4 |  |
| CS(=O)(=O)Nc1cccc(S(=O)(=O)c2ccc(NC(=O)/C=C/c3cccnc3)cc2)c1 [(2E)-N-{4-[(3-methanesulfonamidobenzene)sulfonyl]phenyl}-3-(pyridin-3-yl)prop-2-enamide] | 100 to 1000 | 7.5 |  |
| CS(=O)(=O)c1cccc(S(=O)(=O)c2ccc(NC(=O)/C=C/c3cccnc3)cc2)c1 [(2E)-N-{4-[(3-methanesulfonylbenzene)sulfonyl]phenyl}-3-(pyridin-3-yl)prop-2-enamide] | 100 to 1000 | 14.3 |  |
| COc1cccc(S(=O)(=O)c2ccc(NC(=O)/C=C/c3cccnc3)cc2)c1 [(2E)-N-{4-[(3-methoxybenzene)sulfonyl]phenyl}-3-(pyridin-3-yl)prop-2-enamide] | 114 | 85.7 |  |
| O=C(/C=C/c1cccnc1)Nc1ccc(S(=O)(=O)c2cccc(-c3ccccc3)c2)cc1 [(2E)-N-{4-[(3-phenylbenzene)sulfonyl]phenyl}-3-(pyridin-3-yl)prop-2-enamide] | 100 to 1000 | 25.4 |  |

| SMILES | IC50 (A2780 cells; [1]) [nM] | IC50 (NAMPT) [nM] | IC50 (A2780 cells) [nM] |
| --- | --- | --- | --- |
| CCCOc1cccc(S(=O)(=O)c2ccc(NC(=O)/C=C/c3cccnc3)cc2)c1 [(2E)-N-{4-[(3-propoxybenzene)sulfonyl]phenyl}-3-(pyridin-3-yl)prop-2-enamide] | 86.8 | 21.6 |  |
| CCOc1cc(Cl)ccc1S(=O)(=O)c1ccc(NC(=O)/C=C/c2cccnc2)cc1 [(2E)-N-{4-[(4-chloro-2-ethoxybenzene)sulfonyl]phenyl}-3-(pyridin-3-yl)prop-2-enamide] | 9.68 | 4.2 |  |
| COc1cc(Cl)ccc1S(=O)(=O)c1ccc(NC(=O)/C=C/c2cccnc2)cc1 [(2E)-N-{4-[(4-chloro-2-methoxybenzene)sulfonyl]phenyl}-3-(pyridin-3-yl)prop-2-enamide] | 109 | 7.3 |  |
| COc1cc(S(=O)(=O)c2ccc(NC(=O)/C=C/c3cccnc3)cc2)ccc1Cl [(2E)-N-{4-[(4-chloro-3-methoxybenzene)sulfonyl]phenyl}-3-(pyridin-3-yl)prop-2-enamide] | 72 | 26.3 |  |
| O=C(/C=C/c1cccnc1)Nc1ccc(S(=O)(=O)c2ccc(Cl)cc2)cc1 [(2E)-N-{4-[(4-chlorobenzene)sulfonyl]phenyl}-3-(pyridin-3-yl)prop-2-enamide] | 100 to 1000 | 43.5 |  |
| CCOc1ccc(S(=O)(=O)c2ccc(NC(=O)/C=C/c3cccnc3)cc2)cc1F [(2E)-N-{4-[(4-ethoxy-3-fluorobenzene)sulfonyl]phenyl}-3-(pyridin-3-yl)prop-2-enamide] | 175 | 34.1 |  |
| CCOc1ccc(S(=O)(=O)c2ccc(NC(=O)/C=C/c3cccnc3)cc2)cc1 [(2E)-N-{4-[(4-ethoxybenzene)sulfonyl]phenyl}-3-(pyridin-3-yl)prop-2-enamide] | 100 to 1000 | 27.4 |  |
| Cc1cc(S(=O)(=O)c2ccc(NC(=O)/C=C/c3cccnc3)cc2)ccc1F [(2E)-N-{4-[(4-fluoro-3-methylbenzene)sulfonyl]phenyl}-3-(pyridin-3-yl)prop-2-enamide] | 100 to 1000 | 21.9 |  |
| O=C(/C=C/c1cccnc1)Nc1ccc(S(=O)(=O)c2ccc(F)cc2)cc1 [(2E)-N-{4-[(4-fluorobenzene)sulfonyl]phenyl}-3-(pyridin-3-yl)prop-2-enamide] | 158 | 2 |  |
| CS(=O)(=O)c1ccc(S(=O)(=O)c2ccc(NC(=O)/C=C/c3cccnc3)cc2)cc1 [(2E)-N-{4-[(4-methanesulfonylbenzene)sulfonyl]phenyl}-3-(pyridin-3-yl)prop-2-enamide] | 100 to 1000 | 11.4 |  |
| COc1c(C)cc(S(=O)(=O)c2ccc(NC(=O)/C=C/c3cccnc3)cc2)cc1C [(2E)-N-{4-[(4-methoxy-3,5-dimethylbenzene)sulfonyl]phenyl}-3-(pyridin-3-yl)prop-2-enamide] | 49.5 | 6.7 |  |
| COc1ccc(S(=O)(=O)c2ccc(NC(=O)/C=C/c3cccnc3)cc2)cc1C [(2E)-N-{4-[(4-methoxy-3-methylbenzene)sulfonyl]phenyl}-3-(pyridin-3-yl)prop-2-enamide] | 116 | 17.1 |  |
| O=C(/C=C/c1cccnc1)Nc1ccc(S(=O)(=O)c2ccc(-c3ccccc3)cc2)cc1 [(2E)-N-{4-[(4-phenylbenzene)sulfonyl]phenyl}-3-(pyridin-3-yl)prop-2-enamide] | 100 to 1000 | 4.5 |  |
| CCOc1ccc(Cl)cc1S(=O)(=O)c1ccc(NC(=O)/C=C/c2cccnc2)cc1 [(2E)-N-{4-[(5-chloro-2-ethoxybenzene)sulfonyl]phenyl}-3-(pyridin-3-yl)prop-2-enamide] | 5.59 | 12.3 |  |
| COc1ccc(Cl)cc1S(=O)(=O)c1ccc(NC(=O)/C=C/c2cccnc2)cc1 [(2E)-N-{4-[(5-chloro-2-methoxybenzene)sulfonyl]phenyl}-3-(pyridin-3-yl)prop-2-enamide] | 12.6 | 4.6 |  |
| COc1ccc(F)cc1S(=O)(=O)c1ccc(NC(=O)/C=C/c2cccnc2)cc1 [(2E)-N-{4-[(5-fluoro-2-methoxybenzene)sulfonyl]phenyl}-3-(pyridin-3-yl)prop-2-enamide] | 20.5 | 14.5 |  |
| Cc1ccc(F)cc1S(=O)(=O)c1ccc(NC(=O)/C=C/c2cccnc2)cc1 [(2E)-N-{4-[(5-fluoro-2-methylbenzene)sulfonyl]phenyl}-3-(pyridin-3-yl)prop-2-enamide] | 90.1 | 7.4 |  |
| O=C(/C=C/c1cccnc1)NCc1ccc(S(=O)(=O)c2ccccc2)cc1 [(2E)-N-{[4-(benzenesulfonyl)phenyl]methyl}-3-(pyridin-3-yl)prop-2-enamide] | 243 | 3 |  |
